Data from patent publication US11167015B2, “Arginine and its use as a T cell modulator” (INSTITUTE FOR RESEARCH IN BIOMEDICINE, priority 2016, dated 2021).

Key:
arginase = arginase inhibition; cited from earlier work
activated CD4+ T cells [1] = assay: 3H-arginine uptake assay and calculation of proteome incorporation; format: cell-based, human; conditions: 3 mM added as competitive uptake inhibitor, 15 minutes pulse, 3 day-activated CD4+ T cells
Experimental: (§1) FIG. 10. […] (A) Kinetics of T cell proliferation. Human naïve CD4+ T cells were labeled with CellTraceViolet (CTV) and activated in Ctrl medium or in L-Arg medium or in medium supplemented with 3 mM D-arginine or 3 mM L-arginine together with 3 mM L-lysine. Cell divisions were monitored at 48 h and 72 h by flow cytometry. (B) CTV-labeled CD4+ T cells were activated in normal medium or L-Arg medium and the dilution of CTV was measured over time by flow cytometry. n=5 from two donors. (C) 3H-L-arginine uptake by 3 day-activated CD4+ T cells during a 15 minutes pulse. Where indicated, 3 mM L-arginine, D-arginine or L-lysine was added to the culture medium as a competitive uptake inhibitor. n=7 for control, n=9 for L-Arg, n=5 for D-Arg, and n=9 for L-Lys. Bars represent the s.e.m.

human naïve CD4+ T cells [2] = assay: T cell proliferation (CellTrace Violet dilution); format: cell-based
Experimental: as §1

activated CD4+ T cells [3] = assay: IL-2 withdrawal assay and assessment of cell viability, CD4+ T cells; format: cell-based, human; conditions: for survival of activated CD4+ T cells in the absence of exogenous cytokines: metabolites 3 mM, except for spermidine 0.1 mM, 5 days after IL-2 withdrawal
Experimental: Naïve CD4 T cells were activated with plate-bound CD3 and CD28 antibodies. 48 h after activation IL-2 was added to culture media (500 U ml^−1). After a further 3 days of culturing, cells were washed, counted and equal cell numbers were plated in medium devoid of IL-2. The withdrawal medium was no longer supplemented with e.g. L-arginine. Cell viability was assessed with annexin V.

human naïve CD4+ T cells [4] = assay: kinetic metabolome analysis of activated T cells; format: cell-based; conditions: added to the culture medium at the same concentration as L-arginine (3 mM)
Experimental: (B) Differential analysis of the glycolytic pathway between naïve CD4^+ T cells cultured in L-Arg medium or Ctrl medium, 96 h after activation. Log 2 fold changes of proteins and metabolites are color-coded. […] 3-P-Glycerate and 2-P-Glycerate could not be distinguished as they have the same mass. (C) 72 h-activated T cells were plated in fresh medium and glucose consumption was determined enzymatically after 24 h; n=9 from three donors. (D) Seahorse experiment performed with activated (96 h) T cells from one donor. Oligomycin was injected after 56 min, FCCP after 96 min, and antimycin (to inhibit the respiratory chain) after 136 min. Data are representative of 5 independent experiments with different donors.
(A) Human naïve CD4^+ T cells were activated in normal medium or in L-Arg medium. Nitric oxide formation was measured using DAF-FM diacetate at different time points.
Naïve CD4^+ T cells were either analyzed directly after isolation or at different time points after activation with CD3 and CD28 antibodies. Cells were washed twice in 96-well plates with 75 mM ammonium carbonate at pH 7.4 and snap frozen in liquid nitrogen. Metabolites were extracted three times with hot (>70° C.) 70% ethanol. Extracts were analyzed by flow injection—time of flight mass spectrometry on an Agilent 6550 QTOF instrument operated in the negative mode, as described previously (Fuhrer et al., 2011). Typically 5,000-12,000 ions with distinct mass-to-charge (m/z) ratio could be identified in each batch of samples. Ions were putatively annotated by matching their measured mass to that of the compounds listed by the KEGG database for Homo sapiens, allowing a tolerance of 0.001 Da. Only deprotonated ions (without adducts) were considered in the analysis. In case of multiple matching, such as in the case of structural isomers, all candidates were retained.

96 h-activated T cells = assay: 13C-L-arginine metabolic tracing (metabolic flux experiments); format: cell-based, human; conditions: addition of arginase inhibitor, 13C6-L-arginine pulse
Experimental: FIG. 2. L-arginine is rapidly metabolized upon activation (A) Intracellular abundance of L-arginine in non-activated (non-act) and activated naïve CD4^+ T cells (CD3+CD28 antibodies). Boxplot, n=30 from three donors, each in a different color; a.u. arbitrary units. (B) Kinetics of ^3H-L-arginine uptake during a 15 min pulse. Box plot, n=5 from three donors. (C) Uptake, proteome incorporation and intracellular abundance of the indicated amino acids. Barplot (left): 5×10^4 cells were activated for 4 days and consumption of amino acids from medium was analyzed. Essential amino acids are in grey; n=4 from four donors, error bars represent s.e.m. […] Heat map (right): Intracellular amino acid abundance relative to naive T cells over time as determined by MS; n=30 from three donors. […] Black dots are metabolites that were not detected by MS. Only enzymes that were detected by MS are shown. […] 96 h-activated T cells were pulsed with ^13C6-L-arginine and the metabolic fate was analyzed by LC-MS/MS at different time points. AFL, Apparent fractional labeling; n=4 from two donors. ^13C Citrulline was not detected.
Naïve CD4^+ T cells were activated and 4 days, later extensively washed and pulsed with L-arginine free RPMI medium containing 1 mM [U-^13C]-L-Arginine hydrochloride (Sigma). […] Metabolites were extracted and analyzed by HILIC LC-MS/MS. […]

[5] = test system: C56BL/6 wild type (Wt) or Arg2−/− T cells; assay: In vitro T cell survival with wild type or Arg2-/- mouse T cells; format: cell-based; conditions: norNOHA 500 μM, 2 days after IL-2 withdrawal

**Q.** For `N[C@@H](CSCCB(O)O)C(=O)O` [BEC, S-(2-boronoethyl)-L-cysteine], which “intracellular L-arginine levels” value (arginase) is on record?
**A.** increase intracellular L-arginine levels

**Q.** Which L-arginine uptake (activated CD4+ T cells [1]) does the source give for `N=C(N)NCCC[C@@H](N)C(=O)O` [D-arginine] here?
**A.** inhibit L-arginine uptake

**Q.** What about the onset of proliferation (human naïve CD4+ T cells [2]; 3 mM in medium) of the same compound?
**A.** not affected

**Q.** And the “survival of activated CD4+ T cells in the absence of exogenous cytokines” value (“survival of activated CD4+ T cells” below) (activated CD4+ T cells [3])?
**A.** decreased T cell survival significantly

**Q.** For `NC(=O)C1CCCc2c1[nH]c1ccc(Cl)cc21` (centres unmarked) [Ex-527], which “L-arginine-mediated increase in survival in the presence of the Sirtuin-1 inhibitor” value (activated CD4+ T cells [3]; Ex-527 5 μM added at activation) is on record?
**A.** comparable to controls

**Q.** For `Cl.N=C(N)NCCC[C@H](N)C(=O)O` [L-arginine-HCl, L-arginine hydrochloride], which “survival of activated CD4+ T cells” value (activated CD4+ T cells [3]) is on record?
**A.** enhanced T cell survival to a similar extent

**Q.** With `NC(=O)NCCC[C@H](N)C(=O)O` [L-citrulline, reference compound] as the compound, how does the effects on metabolism (human naïve CD4+ T cells [4]) read?
**A.** only had minor effects

**Q.** What about the “survival of activated CD4+ T cells” value (activated CD4+ T cells [3]) of the same compound?
**A.** had no effect

**Q.** With `NCCCC[C@H](N)C(=O)O` [L-lysine] as the compound, how does the L-arginine uptake (activated CD4+ T cells [1]) read?
**A.** inhibit L-arginine uptake

**Q.** And the onset of proliferation (human naïve CD4+ T cells [2]; 3 mM L-lysine added to L-arginine-supplemented cultures)?
**A.** not affected

**Q.** And the “survival of activated CD4+ T cells” value (activated CD4+ T cells [3])?
**A.** decreased T cell survival significantly

**Q.** With `N=C(N)NCCCCN` [agmatine] as the compound, how does the “survival of activated CD4+ T cells” value (activated CD4+ T cells [3]) read?
**A.** decreased T cell survival

**Q.** Which “survival of activated CD4+ T cells” value (activated CD4+ T cells [3]) does the source give for `CN(CC(=O)O)C(=N)N` [creatine] here?
**A.** had no effect

**Q.** With `[N]=O` [nitric oxide] as the compound, how does the “T cell survival (role of nitric oxide)” value (activated CD4+ T cells [3]; nitric oxide synthase inhibitors DiMeArg or L-NAME at 1 mM) read?
**A.** had no effect

**Q.** With `N=C(NO)NCC[C@H](N)C(=O)O` [norNOHA, N^ω-Hydroxy-nor-L-arginine] as the compound, how does the “conversion of L-arginine into agmatine” value (96 h-activated T cells) read?
**A.** did not affect

**Q.** What about the “conversion of L-arginine into ornithine, putrescine, spermidine and proline” value (96 h-activated T cells) of the same compound?
**A.** markedly reduced

**Q.** And the “survival of Arg2−/− T cells after IL-2 withdrawal” value [5]?
**A.** did not affect survival

**Q.** What about the “survival of wild type T cells after IL-2 withdrawal” value [5] of the same compound?
**A.** increasing the survival

**Q.** What about the “intracellular L-arginine levels” value (arginase) of the same compound?
**A.** increase intracellular L-arginine levels

**Q.** With `O=C(O)[C@@H]1CCCN1` [proline, L-proline] as the compound, how does the “survival of activated CD4+ T cells” value (activated CD4+ T cells [3]) read?
**A.** had no effect

**Q.** For `NCCCCN` [putrescine], which “survival of activated CD4+ T cells” value (activated CD4+ T cells [3]) is on record?
**A.** decreased T cell survival

**Q.** For `NCCCCNCCCN` [spermidine], which “survival of activated CD4+ T cells” value (activated CD4+ T cells [3]) is on record?
**A.** decreased T cell survival

**Q.** With `NC(N)=O` [urea] as the compound, how does the “survival of activated CD4+ T cells” value (activated CD4+ T cells [3]) read?
**A.** had no effect
